For 11 compounds, AC50 and IC50 results are on record in US20240279239A1, “COMPOUNDS AND METHODS FOR MODULATING SPLICING” (REMIX THERAPEUTICS INC., priority 2020, published 2024).

What all share (assay type): cell-based
The subject of experiment [1] is HTT. Kind of experiment: RT-qPCR splicing assay for HTT mRNA isoforms (canonical junction CJ and alternative junction AJ). The conditions noted are these: A673 or K562 cell line, 24 hours treatment. The method, then:
(§1) Example 44: Exemplary splicing assay for monitoring expression levels of splice variants Compounds described herein were used to modulate RNA transcript abundance in cells. The expression of a target mRNA was measured by detecting the formation of an exon-exon junction in the canonical transcript (CJ). A compound mediated exon-inclusion event was detected by observing an increase in formation of a new junction with an alternative exon (AJ). Real-time qPCR assays were used to detect these splicing switches and interrogate the potency of various compounds towards different target genes. A high-throughput real time quantitative PCR (RT-qPCR) assay was developed to measure these two isoforms of the mRNA (CJ and AJ) for an exemplary gene, HTT, together with a control housekeeping gene, GAPDH or GUSB or PPIA, used for normalization. Briefly, the A673 or K562 cell line was treated with various compounds described herein (e.g., compounds of Formula (I)). After treatment, the levels of the HTT mRNA targets were determined from each sample of cell lysate by cDNA synthesis followed by qPCR.
(§2) The A673 cell line was cultured in DMEM with 10% FBS. Cells were diluted with full growth media and plated in a 96-well plate (15,000 cells in 100 µl media per well). The plate was incubated at 37° C. with 5% CO2 for 24 hours to allow cells to adhere. An 11-point 3-fold serial dilution of the compounds was made in DMSO then diluted in media in an intermediate plate. Compounds were transferred from the intermediate plate to the cell plate with the top dose at a final concentration of 10 uM in the well. Final DMSO concentration was kept at or below 0.25%. The cell plate was returned to the incubator at 37° C. with 5% CO2 for an additional 24 hours.
(§3) The K562 cell line was cultured in IMDM with 10% FBS. For K562, cells were diluted with full growth media and plated in either a 96-well plate (50,000 cells in 50 uL media per well) or a 384-well plate (8,000-40,000 cells in 45 uL media per well). An 11-point 3-fold serial dilution of the compounds were made in DMSO then diluted in media in an intermediate plate. Compound was transferred from the intermediate plate to the cell plate with the top dose at a final concentration of 10 uM in the well. Final DMSO concentration was kept at or below 0.25%. Final volume was 100 uL for 96-well plate and 50 uL for 384-well plate. The cell plate was then placed in an incubator at 37° C. with 5% CO2 for 24 hours.
(§4) The cells were then gently washed with 50 uL-100 uL cold PBS before proceeding to addition of lysis buffer. 30 uL-50 uL of room temperature lysis buffer with DNAse I (and optionally RNAsin) was added to each well. Cells were shaken/mixed thoroughly at room temperature for 5-10 minutes for lysis to take place and then 3 uL-5 uL of room temperature stop solution was added and wells were shaken/mixed again. After 2-5 minutes, the cell lysate plate was transferred to ice for RT-qPCR reaction setup. The lysates could also be frozen at ˜80° C. for later use.
(§5) In some cases, a direct lysis buffer was used. An appropriate volume of 3× lysis buffer (10 mM Tris, 150 mM NaCl, 1.5%-2.5% Igepal and 0.1-1 U/uL RNAsin, pH 7.4) was directly added to either K562 or A673 cells in media and mixed by pipetting 3 times. The plates were then incubated at room temperature with shaking/rocking for 20-50 minutes to allow for lysis to take place. After this time, the cell lysate plate was transferred to ice to set up for the RT-qPCR reactions. The lysates could also be frozen at −80° C. for later use.
(§6) To set up 10 uL RT-qPCR reactions, cell lysates were transferred to 384-well qPCR plates containing the master mix according to the table below. The plates were sealed, gently vortexed, and spun down before the run. The volumes were adjusted accordingly in some instances where the reaction was carried in 20 uL. The table below summarizes the components of the RT-qPCR reactions: […]
(In general: In qPCR the cycle at which signal appears reflects the starting amount.)

Experiment [2] has as its system HTT. Put plainly: RT-qPCR canonical junction panel assay, HTT. The conditions noted are these: gene panel, read-out: HTT IC50 (decrease in CJ mRNA levels). The method, then: as §1, §2, §3, §4, §5, §6
In the next experiment the test system is SMN2. Put plainly: RT-qPCR canonical junction panel assay, SMN2. The conditions noted are these: gene panel, read-out: SMN2 IC50 (decrease in CJ mRNA levels). Here is the method: as §1, §2, §3, §4, §5, §6
For the next experiment, the system named is Target C. Kind of experiment: RT-qPCR canonical junction panel assay, Target C. The conditions noted are these: gene panel, read-out: Target C IC50 (decrease in CJ mRNA levels). The method, then:
as §1, §2, §3, §4, §5, §6

The mark [3] stands for this setting: decrease in CJ mRNA levels, read-out: HTT CJ AC50.
Setting [4] is: increase in AJ mRNA, read-out: HTT AJ AC50.

Like-named read-outs stand apart in the source and are kept apart here.

As for `Cc1cn2cc(-c3nc4ncn(C5CCNCC5)c(=O)c4s3)cc(F)c2n1` [Compound 232, 2-(8-fluoro-2-methylimidazo[1,2-α]pyridin-6-yl)-6-(piperidin-4-yl)thiazolo[4,5-d]pyrimidin-7(6H)-one], the AC50 in the experiment with HTT [1] (setting [3]) and with HTT [1] (setting [4]) was less than 100 nM throughout. Moreover, the results for the IC50 in the experiment with HTT [2], with SMN2 and in the experiment on Target C were less than 100 nM, less than 100 nM and 100 to 1000 nM, respectively.
In the case of `Cc1cc(-c2cc(=O)n3nc(N4CCN(C)CC4)sc3n2)cc2cn(C)nc12` [Compound 157], the AC50 with HTT [1] (setting [3]) and in the experiment on HTT [1] (setting [4]) was more than 10000 nM throughout. Further, the IC50 in the experiment on HTT [2], in the experiment on SMN2 and in the experiment with Target C was more than 10000 nM throughout.
As for `Cc1cn2nc(-c3cc(=O)n4cc(N5CCNC6(CC6)C5)sc4n3)cc(C)c2n1` [Compound 211, 7-(2,8-dimethylimidazo[1,2-b]pyridazin-6-yl)-2-(4,7-diazaspiro[2.5]octan-7-yl)-5H-thiazolo[3,2-α]pyrimidin-5-one], the AC50 with HTT [1] (setting [3]) and in the experiment with HTT [1] (setting [4]) was 1000 to 10000 nM each time. Moreover, the IC50 with HTT [2] lay within 1000 to 10000 nM; in the experiment on SMN2, 100 to 1000 nM; in the experiment with Target C, 1000 to 10000 nM.
As to `Cc1cn2cc(-c3cc(=O)n4nc(N5CCNC6(CC6)C5)sc4n3)cc(F)c2n1` [Compound 209, 7-(8-fluoro-2-methylimidazo[1,2-α]pyridin-6-yl)-2-(4,7-diazaspiro[2.5]octan-7-yl)-5H-[1,3,4]thiadiazolo[3,2-α]pyrimidin-5-one], the AC50 with HTT [1] (setting [3]) and in the experiment on HTT [1] (setting [4]) was 1000 to 10000 nM throughout. Moreover, the IC50 in the experiment on HTT [2], with SMN2 and in the experiment on Target C was 1000 to 10000 nM in each case.
On to `Cn1cc2cc(-n3cnc4nc(N5CCNCC5)sc4c3=O)ccc2n1` [Compound 225, 6-(2-methyl-2H-indazol-5-yl)-2-(piperazin-1-yl)thiazolo[4,5-d]pyrimidin-7(6H)-one], for which the AC50 in the experiment on HTT [1] (setting [3]) and with HTT [1] (setting [4]) was more than 10000 nM throughout. In addition, the IC50 with HTT [2], with SMN2 and with Target C was more than 10000 nM in each case.
With `Cc1cn2cc(-c3nn4c(=O)cc(N5CCN(C)C6(CC6)C5)nc4s3)cc(F)c2n1` [Compound 218, 2-(8-fluoro-2-methylimidazo[1,2-α]pyridin-6-yl)-7-(4-methyl-4,7-diazaspiro[2.5]octan-7-yl)-5H-[1,3,4]thiadiazolo[3,2-α]pyrimidin-5-one], the AC50 in the experiment with HTT [1] (setting [3]) and with HTT [1] (setting [4]) was 1000 to 10000 nM throughout. Moreover, the IC50 with HTT [2], with SMN2 and with Target C was 1000 to 10000 nM in each case.
On to `Cc1cc(-c2nc3ncn(C4CCN(C)CC4)c(=O)c3s2)cc2cn(C)nc12` [Compound 234, 2-(2,7-dimethyl-2H-indazol-5-yl)-6-(1-methylpiperidin-4-yl)thiazolo[4,5-d]pyrimidin-7(6H)-one], for which the AC50 in the experiment with HTT [1] (setting [3]) and in the experiment with HTT [1] (setting [4]) was 100 to 1000 nM throughout. Also, the values for the IC50 with HTT [2], with SMN2 and in the experiment on Target C were 100 to 1000 nM, less than 100 nM and 1000 to 10000 nM, respectively.
In the case of `Cc1cn2nc(-c3cc(=O)n4cc(N(C)C5CC(C)(C)NC(C)(C)C5)sc4n3)cc(C)c2n1` [Compound 205, 7-(2,8-dimethylimidazo[1,2-b]pyridazin-6-yl)-2-(methyl(2,2,6,6-tetramethylpiperidin-4-yl)amino)-5H-thiazolo[3,2-α]pyrimidin-5-one], the AC50 in the experiment with HTT [1] (setting [3]) and in the experiment on HTT [1] (setting [4]) was 1000 to 10000 nM in each case. Further, the IC50 in the experiment on HTT [2], in the experiment with SMN2 and in the experiment on Target C was 1000 to 10000 nM each time.
Consider `Cc1cn2cc(-c3cn4c(=O)cc(N5CCNCC5)nc4s3)cc(F)c2n1` [Compound 213, 2-(8-fluoro-2-methylimidazo[1,2-α]pyridin-6-yl)-7-(piperazin-1-yl)-5H-thiazolo[3,2-α]pyrimidin-5-one], for which the AC50 with HTT [1] (setting [3]) and in the experiment on HTT [1] (setting [4]) was more than 10000 nM throughout. Moreover, the IC50 was more than 10000 nM in the experiment on HTT [2], 1000 to 10000 nM with SMN2 and more than 10000 nM in the experiment on Target C.
For the compound `Cc1cc(-c2cc3ncn(C4CCNCC4)c(=O)c3s2)cc2cn(C)nc12` [Compound 236, 6-(2,7-dimethyl-2H-indazol-5-yl)-3-(piperidin-4-yl)thieno[3,2-d]pyrimidin-4(3H)-one], the AC50 is less than 100 nM in the experiment with HTT [1] (setting [3]) and 100 to 1000 nM in the experiment with HTT [1] (setting [4]). The IC50 in the experiment on HTT [2] is less than 100 nM; with SMN2, less than 100 nM; in the experiment with Target C, 100 to 1000 nM.
As to `Cc1cc(-c2nn3c(=O)cc(N4CCN(C)CC4)nc3s2)cc2cn(C)nc12` [Compound 210, 2-(2,7-dimethyl-2H-indazol-5-yl)-7-(4-methylpiperazin-1-yl)-5H-[1,3,4]thiadiazolo[3,2-α]pyrimidin-5-one], the AC50 with HTT [1] (setting [3]) and with HTT [1] (setting [4]) was 1000 to 10000 nM throughout. Moreover, the IC50 in the experiment on HTT [2], in the experiment on SMN2 and in the experiment with Target C was 1000 to 10000 nM throughout.

Usually AC50 stands for the concentration at which the activity in the assay is half-maximal. One may read the IC50 as the concentration needed to halve the response being measured.
